Assay results from patent US8778889B2, “Antimicrobial decapeptide oral hygiene treatment” (The United States of America as represented by the …, priority 2003, dated 2014).
Values after ≈ are worked out from the molar mass of the structure shown. Square brackets hold non-standard residues; d marks the D form. Peptide text beside a SMILES is read from it. αMeK = C[C@](N)(CCCCN)C(=O)O

Assays:
[1] = tested on: biofilms grown on saliva-coated HA surfaces; assay: Live/Dead BacLight staining with confocal laser scanning microscopy of treated biofilms; format: cell-based, human salivary bacteria; conditions: 66 h-old biofilms; KSL 200 μg/ml, Bzl 0.001%, CHX 0.12%
Method: (A) Effect of KSL on intact versus disrupted 45 h biofilms formed on saliva-coated HA disks by salivary bacteria using the in vitro plaque assay. A Mann-Whitney test was used for comparison of log reductions in CFU between the experimental groups (KSL-treated intact or disrupted biofilms) with the control groups (dH2O-treated intact or disrupted biofilms). The single asterisk represents a statistically significant difference between KSL and dH2O-treated intact biofilms (p<0.05). Likewise, double asterisks represent a statistically significant difference between KSL and dH2O-treated disrupted biofilms (p<0.01). […] (B) Effect of benzalkonium chloride in promoting the bactericidal activity of KSL against 66 h-old intact oral biofilms formed on saliva-coated HA disks using the in vitro plaque system. A Kruskal-Wallis test was used to compare log reductions in CFU among various treatment groups including the control group (dH2O-treated). The single asterisk represents a statistically significant difference between the combined treatment of KSL and benzalkonium chloride (Bzl) and dH2O (p<0.001), KSL (p<0.01), or Bzl (p<0.01)-treated intact biofilms. Double asterisks represent a statistically significant difference between CHX and dH2O (p<0.001) or Bzl (P<0.05)-treated intact biofilms. […] No significant difference in viability counts was observed between CHX-treated versus the combined use of KSL and Bzl. For (A) and (B), the data represent the determinations of one of three separate experiments, each performed in quadruplicate. Bars represent standard deviations. (C) Confocal images of control and treated biofilms grown on saliva-coated HA surfaces. Live/Dead BacLight™ Viability kit (Molecular Probes, Eugene, Oreg.) was used to assess the viability of biofilm cells exposed to different treatments. […] An excitation wavelength of 488 nm was used and the fluorescence light emitted was collected by two separate emission filters, 500-530 nm (SYTO 9, live), and 650-710 nm (propidium iodide, dead). […]

[2] = tested on: oral biofilms formed on saliva-coated HA disks by salivary bacteria; assay: In vitro plaque assay, viable counts of oral biofilms on saliva-coated HA disks; format: cell-based, human salivary bacteria
Description: In conjunction with the dual flow cell system, a modification of an in vitro plaque model of biofilm formation described by Guggenheim et al. (Guggenheim et al., 2001) was used to determine the effects of tested antimicrobials and other agents on developed oral biofilms (see Appendix I for details). HA disks (Clarkson, south Williamsport, Pa.) were employed as substrates for salivary bacteria to form biofilms.
To determine the inhibitory activity of KSL on developed oral biofilms, disks containing 45 h-old biofilms were transferred to wells containing aqueous KSL (200 μg/ml; 1 ml/well). Following 30 min exposure at 37° C., disks were rinsed with 3×1 ml of saline and transferred to sterile 15 ml polypropylene tubes containing 1 ml PBS. Biofilm cells adherent to surfaces (after treatment) were recovered by sonicating for 2 min at 5 watts with a Microson ultrasonic cell disrupter equipped with a cup horn (Misonix Inc., Farmingdale, N.Y.). Settings including the time interval used in the sonication were predetermined empirically to yield maximal recovery of adherent biofilm cells.
The effect of KSL on disrupted biofilms was assessed by recovering biofilm cells from HA disks (45 h-old biofilms) through sonication as described above. The detached biofilm cells (in sterile dH2O) were mixed with an equal volume of aqueous KSL to obtain a final peptide concentration of 200 μg/ml, and the reaction mixtures incubated at 37° C. for 30 min. The interactions of KSL and suspended biofilm cells were terminated by washing in PBS.
To determine the effect of the surface-active agent (benzalkonium chloride; Sigma, St. Louis, Mo.) in promoting the killing of intact biofilms by KSL, 66 h-old oral biofilms were treated with KSL (200 μg/ml), benzalkonium chloride (0.001%), or a combination of the two agents, followed by viable counts determinations and confocal laser scanning microscopy of treated samples.
Viable counts of biofilm cells derived from treated disks or disrupted biofilms were determined by spiral plating serially diluted samples onto blood agar plates. Distilled water or 0.12% aqueous chlorhexidine digluconate (Sigma) was used as the negative or positive control, respectively. The 45 h-old biofilms were exposed to chlorhexidine for 1 min, and to water for 30 min at 37° C.
In this assay, HA disks (Clarkson Chromatography Products, Inc., South Williamsport, Pa.) were used as surfaces on which plaque formation can occur. Before use, sterile HA disks were conditioned in the wells of a 24-well microtiter plate (Becton Dickinson, Franklin Lakes, N.J.) containing 50% sterile saliva by incubating at room temperature for a minimum of two hours on a rotating platform at 95 rpm. The saliva was removed and each well inoculated with isolated salivary bacteria at a bacterial cell concentration of 1.0×10^7 cells/ml in sterile 50% whole saliva. After two hours of incubation (with rotation) at 37° C. to allow the bacteria to adhere to surfaces, unattached bacteria were removed and replaced with supplemented saliva-based medium. The plates were incubated with rotation at 37° C. for 45 h (with medium replaced three times), or 66 h (with medium replaced five times) in a CO2 incubator prior to treatments, and the recovery of biofilm cells from treated or untreated disks.
In these studies, KSL or KSL-W was used at 200 μg/ml, whereas Bzl and CPC were used at 0.001% and 0.0025%, respectively. […]

VRE ATCC #51299 = format: cell-based, Enterococci
Description: (§1) As shown in the table below, many drug-resistant pathogens including multidrug-resistant Acinetobacter baumannii (clinical isolates) were susceptible to the bactericidal activity of the newly developed antimicrobial peptides. […] This is shown by their lower MIC and MBC against a number of antibiotic-resistant bacteria including methicillin-resistant Staphylococcus aureus, vancomycin-resistant Enterococci, and multidrug-resistant Acinetobacter baumannii. Many of these resistant strains are involved in nosocomial infections, which affect the immunocompromised and the elderly individuals with weakened defenses. The tests were done in a broth microdilution assay as described in our earlier publication (Concannon et al., 2003).

VRE WRAMC #3 = format: cell-based, Enterococci
Description: as §1

VRE VVRAMC #7 = format: cell-based, Enterococci
Description: as §1

VRE WRAMC #6 = format: cell-based, Enterococci
Description: as §1

A. baumannii WRAMC #5 = format: cell-based, Acinetobacter baumannii
Description: as §1

A. baumannii ATCC #19606 = format: cell-based, Acinetobacter baumannii
Description: as §1

A. baumannii WRAMC #14 = format: cell-based, Acinetobacter baumannii
Description: as §1

A. baumannii WRAMC #13 = format: cell-based, Acinetobacter baumannii
Description: as §1

A. baumannii WRAMC #16 = format: cell-based, Acinetobacter baumannii
Description: as §1

A. baumannii WRAMC #8 = format: cell-based, Acinetobacter baumannii
Description: as §1

A. baumannii WRAMC #19 = format: cell-based, Acinetobacter baumannii
Description: as §1

A. baumannii WRAMC #4 = format: cell-based, Acinetobacter baumannii
Description: as §1

A. baumannii WRAMC #18 = format: cell-based, Acinetobacter baumannii
Description: as §1

A. baumannii WRAMC #2 = format: cell-based, Acinetobacter baumannii
Description: as §1

A. baumannii WRAMC #17 = format: cell-based, Acinetobacter baumannii
Description: as §1

A. baumannii WRAMC #11 = format: cell-based, Acinetobacter baumannii
Description: as §1

A. baumannii WRAMC #15 = format: cell-based, Acinetobacter baumannii
Description: as §1

MRSA WRAMC #9 = format: cell-based, Staphylococcus aureus
Description: as §1

MRSA ATCC #33591 = format: cell-based, Staphylococcus aureus
Description: as §1

MRSA ATCC #43300 = format: cell-based, Staphylococcus aureus
Description: as §1

MRSA WRAMC #12 = format: cell-based, Staphylococcus aureus
Description: as §1

MRSA VVRAMC #1 = format: cell-based, Staphylococcus aureus
Description: as §1

MRSA VVRAMC #10 = format: cell-based, Staphylococcus aureus
Description: as §1

Compound | viability of biofilm cells by live/dead staining [1] | MBC (A. baumannii WRAMC #5) | MBC (A. baumannii WRAMC #14) | MBC (A. baumannii WRAMC #13) | MBC (A. baumannii WRAMC #16) | MIC (A. baumannii WRAMC #16) | MBC (A. baumannii WRAMC #8) | MBC (A. baumannii WRAMC #4) | MIC (A. baumannii WRAMC #4) | MBC (A. baumannii WRAMC #18) | MBC (A. baumannii WRAMC #2) | MBC (A. baumannii WRAMC #17) | MIC (A. baumannii WRAMC #17) | MBC (A. baumannii WRAMC #11) | MBC (MRSA WRAMC #9) | MBC (MRSA ATCC #33591) | MIC (MRSA ATCC #33591) | MBC (MRSA ATCC #43300) | MIC (MRSA ATCC #43300) | MBC (MRSA WRAMC #12) | also measured
[H]/N=C(\N/C(=N/[H])NCCCCCCNC(=N)NC(=N)Nc1ccc(Cl)cc1)Nc1ccc(Cl)cc1 [chlorhexidine, chlorhexidine digluconate, reference compound] | significantly reduced the viability of biofilm cells |  |  |  |  |  |  |  |  |  |  |  |  |  |  |  |  |  |  |  | reduction of viable counts, intact biofilms ([2]; intact 45-h-old biofilms, 0.12% chlorhexidine, 1 min): larger reduction of viable counts
H-DDDEEKFLRRIGRYGKKVVFWVKFK-NH2 [H1-2] |  | 25 µg/mL | 50 µg/mL | 50 µg/mL | 25 µg/mL | 12.5 µg/mL | 25 µg/mL | 50 µg/mL | 25 µg/mL | 25 µg/mL | 200 µg/mL | 100 µg/mL | 25 µg/mL | 50 µg/mL | 3.125 µg/mL | 12.5 µg/mL | 3.125 µg/mL | 12.5 µg/mL | 3.125 µg/mL | 6.25 µg/mL | MBC (VRE ATCC #51299): 50 µg/mL; MIC (VRE ATCC #51299): 12.5 (25) μg/ml; MBC (VRE WRAMC #3): 25 µg/mL; MIC (VRE WRAMC #3): 6.25 µg/mL; MIC (VRE VVRAMC #7): <1.56 µg/mL; MBC (VRE VVRAMC #7; VRE VVRAMC #7): 0 µg/mL; MBC (VRE WRAMC #6): 6.25 µg/mL; MIC (VRE WRAMC #6): <1.56 µg/mL; MBC (A. baumannii ATCC #19606): 25 µg/mL; MIC (A. baumannii ATCC #19606): 12.5 µg/mL; MBC (A. baumannii WRAMC #19): 200 µg/mL; MIC (A. baumannii WRAMC #2): 25 µg/mL; MIC (A. baumannii WRAMC #11): 25 µg/mL; MBC (A. baumannii WRAMC #15): 50 µg/mL; MIC (A. baumannii WRAMC #15): 25 µg/mL; MIC (MRSA WRAMC #12): 3.125 µg/mL; MBC (MRSA VVRAMC #1): 25 µg/mL; MBC (MRSA VVRAMC #10): 25 µg/mL; MIC (MRSA VVRAMC #10): 1.56 µg/mL
CC(C)[C@H](NC(=O)[C@H](CCCCN)NC(=O)[C@@H](N)CCCCN)C(=O)N[C@H](C(=O)N[C@@H](Cc1ccccc1)C(=O)N[C@@](C)(CCCCN)C(=O)N[C@H](C(=O)N[C@@H](CCCCN)C(=O)N[C@@H](Cc1ccccc1)C(=O)N[C@@H](CCCCN)C(N)=O)C(C)C)C(C)C [KSL-M, NH2-Lys-Lys-Val-Val-Phe-Lys(me)-Val-Lys-Phe-Lys-CONH2] (H-KKVVF[αMeK]VKFK-NH2) |  | 50 µg/mL (≈ 39.6 µM) | 200 µg/mL (≈ 158 µM) | 200 µg/mL (≈ 158 µM) | 100 µg/mL (≈ 79.1 µM) | 50 µg/mL (≈ 39.6 µM) | >200 µg/mL | 50 µg/mL (≈ 39.6 µM) | 25 µg/mL (≈ 19.8 µM) | 100 µg/mL (≈ 79.1 µM) | 200 µg/mL (≈ 158 µM) | 200 µg/mL (≈ 158 µM) | 100 µg/mL (≈ 79.1 µM) | 100 µg/mL (≈ 79.1 µM) | >200 µg/mL | >200 µg/mL | >200 µg/mL | >200 µg/mL | >200 µg/mL | >200 µg/mL | MIC (A. baumannii WRAMC #8): >200 µg/mL; MIC (MRSA WRAMC #9): >200 µg/mL; MIC (MRSA WRAMC #12): >200 µg/mL; MBC (MRSA VVRAMC #1): >200 µg/mL; MIC (MRSA VVRAMC #1): >200 µg/mL; MBC (MRSA VVRAMC #10): >200 µg/mL; MIC (MRSA VVRAMC #10): >200 µg/mL
benzalkonium chloride [reference compound] | less impact on the viability of biofilm cells |  |  |  |  |  |  |  |  |  |  |  |  |  |  |  |  |  |  |  | effect on viability of intact biofilms compared to water treatment ([2]; 66 h-old oral biofilms, KSL 200 μg/ml, benzalkonium chloride 0.001%): less effect on the viability
